{
  "source": "patent US20100029676A1",
  "about": "(priority 2005, published 2010)",
  "origin": "cited, not measured here",
  "test_system": "imatinib-resistant BCR-ABL mutants",
  "conditions": "number of mutants active / tested; Weisberg et al.",
  "data": [
    {"smiles": "Cc1cn(-c2cc(NC(=O)c3ccc(C)c(Nc4nccc(-c5cccnc5)n4)c3)cc(C(F)(F)F)c2)cn1", "note": "[AMN107]", "values": [
      {"measurement": "imatinib-resistant BCR-ABL mutants against which significantly active", "value": "32/33"}
    ]}
  ]
}
